Measured values published in patent US5057614A, “Substituted pyrroles” (Hoffmann-La Roche Inc., priority 1988, dated 1991).

The compounds below were run against protein kinase C (assay: inhibition of protein kinase C in vitro (protein kinase-induced incorporation of 32P from [γ-32P]ATP into histone)). Conditions: concentration reducing by 50% the protein kinase-induced incorporation of 32P from [γ-32P]ATP into histone.
Format: biochemical
Source text: The IC50 figures in the following Table, represent that concentration of test compound which reduces by 50% the protein kinase-induced incorporation of ^32 P from [γ-^32 P]ATP into histone.

First: Cc1cccc(C2=C(c3cn(C)c4ccccc34)C(=O)NC2=O)c1 [3-(1-methyl-3-indolyl)-4-(3-methylphenyl)-1H-pyrrole-2,5-dione]
Second: Cn1cc(C2=C(c3cn(C)c4ccc(N)cc34)C(=O)NC2=O)c2ccccc21 [3-(5-amino-1-methyl-3-indolyl)-4-(1-methyl-3-indolyl)-1H-pyrrole-2,5-dione]
The IC50 of the first is 1.7-fold higher: 1000 nM for the first, 600 nM for the second.

Going from `Cn1cc(C2=C(c3cn(CCCNC(N)=N[N+](=O)[O-])c4ccccc34)C(=O)NC2=O)c2ccccc21` [3-(1-methyl-3-indolyl)-4-[1-[3-(2-nitroguanidino)propyl]-3-indolyl]-1H-pyrrole-2,5-dione] to `Cn1cc(C2=C(c3cn(CCC(N)=O)c4ccccc34)C(=O)NC2=O)c2ccccc21` [3-[1-(2-carbamoylethyl)-3-indolyl]-4-(1-methyl-3-indolyl)-1H-pyrrole-2,5-dione], the IC50 rises from 25 nM to 500 nM (20-fold). The first is the more potent here.

`Cn1cc(C2=C(c3cn(CCCN=C=S)c4ccccc34)C(=O)NC2=O)c2ccccc21` [3-[1-(3-isothiocyanatopropyl)-3-indolyl]-4-(1-methyl-3-indolyl)-1H-pyrrole-2,5-dione] and `Cn1cc(C2=C(c3cn(CCCSC(=N)N)c4ccccc34)C(=O)NC2=O)c2ccccc21` [3-[1-[3-(amidinothio)propyl]-3-indolyl]-4-(1-methyl-3-indolyl)-1H-pyrrole-2,5-dione] are within 1.5-fold of each other in IC50: 8 nM for the first, 10 nM for the second.
